Data published in patent US20100144712A1 (priority 2007, published 2010).
≈ marks a conversion by molar mass, not a printed value.

Experiments:
Assay type in all cases: cell-based
[1] = test system: Candida albican ATCC 90873; assay: In vitro antifungal activity (MIC80), Candida albican ATCC 90873; conditions: Candida, ATCC90873; Table 2, ATCC 90873; read-out: Minimal inhibitory concentration (MIC80)
Method: (§1) In vitro antifungal activities of the inventive antifungal compounds were evaluated using test strains including Candida albican (ATCC 90873, 204276, 62342, 64124, 64550, 96901, MYA-573, MYA-574, MYA-575, MYA-576, MYA-1003) and Aspergillus fumigatus (ATCC 16424). Test samples and positive control samples were prepared by dissolving the inventive compounds and comparative compounds, i.e., amphotericin B, fluconazole and itraconazole, in DMSO, respectively, and each successively diluted with medium to obtain test and positive control solutions having test compound concentrations of 0.125 μg/ml to a maximum concentration not generating turbidity. Minimal inhibitory concentration (MIC80) of each compound was determined as the lowest concentration of the test compounds required to reduce growth by 80% relative to a control strain not treated.
(§2) 1) Test strain: Candida albican ATCC 90873, 204276, 62342, 64124, 64550, 96901, MYA-573, MYA-574, MYA-575, MYA-576, MYA-1003, and Aspergillus fumigatus ATCC 16424 were commercially obtained from The American Type Culture Collection (ATCC) and subcultured in CHEMON Co. Ltd. (amphotericin B was commercially purchased from Sigma, and fluconazole and itraconazole were prepared according to methods described in British Patent No. 2,099,818; and U.S. Pat. No. 4,267,179, respectively).
(§3) 2) Medium and culture condition: Candida albican was cultured in Sabourad Dextrose Agar, YM Agar or Potato Dextrose Agar according to ATCC information at a temperature of 37° C., 35° C., 30° C. or 25° C. Aspergillus fumigatus was cultured in Malt Extract Agar or Potato Dextrose Agar at a temperature ranging from 24 to 27° C.
(§4) 3) Preparation of test samples: the inventive compounds and comparative compounds were each diluted with DMSO to obtain 1 to 2 ml of a test sample in a concentration of 100-folds of the determining maximum concentration (256 μg/ml).
(§5) The test samples were each successively diluted with RPMI 1640 to obtain test solutions having concentrations of […] in a 12×75 mm sterilized disposable culture tube. The final concentration of DMSO was adjusted to […] (v/v).
(§6) 5) Preparation of strain solution and inoculation
(§7) Candida albican strains were each subcultured in Sabourad Dextrose Agar, YM Agar or Potato Dextrose Agar medium at 35° C. for 2˜3 days. In the case of yeasts, a single colony was taken from prominent colonies and suspended in 0.85% sterile physiological saline solution and the turbidity of the suspension was adjusted to 80˜82% at 530 nm, and then diluted 50-fold with RPMI 1640 medium to 1.0×10^3˜5.0×10^3 CFU/ml. The turbidity of fungi was adjusted to 80˜82% and the suspension was diluted 50-fold to […]. Aspergillus fumigatus strains were subcultured in Malt Extract Agar for 7˜10 days, and a single colony was taken from prominent colonies and suspended in 0.85% sterile physiological saline solution and the suspension was adjusted to 0.108 at 530 nm, and then diluted 1000-fold with RPMI 1640 medium to 0.4×10^2˜5×10^4 CFU/ml. The turbidity of fungi was adjusted to 80˜82% and the suspension was diluted 50-fold to 0.4102˜0.5104 CFU/ml.
(§8) The strain solutions thus obtained were each seeded into a sterilized 96-well microplate, 0.1 ml of each test solution were added thereto, and […] of alamarblue was treated to each well (Biosource, #DAL1100). This procedure was repeated 2 times.
(§9) Minimal inhibitory concentration (MIC80) of each compound was determined as the lowest concentration of the test compounds required to reduce growth by 80% relative to a control strain not treated.

[2] = test system: Candida albican ATCC 96901; assay: In vitro antifungal activity (MIC80), Candida albican ATCC 96901; conditions: Candida, ATCC96901; Table 2, ATCC 96901; read-out: Minimal inhibitory concentration (MIC80)
Method: as §1, §2, §3, §4, §5, §6, §7, §8, §9

[3] = test system: Candida albican ATCC MYA-1003; assay: In vitro antifungal activity (MIC80), Candida albican ATCC MYA-1003; conditions: Candida; Table 2, MYA 1003; read-out: Minimal inhibitory concentration (MIC80)
Method: as §1, §2, §3, §4, §5, §6, §7, §8, §9

[4] = test system: Candida albican ATCC 62342; assay: In vitro antifungal activity (MIC80), Candida albican ATCC 62342; conditions: Candida, ATCC62342; Table 2, 62342; read-out: Minimal inhibitory concentration (MIC80)
Method: as §1, §2, §3, §4, §5, §6, §7, §8, §9

[5] = test system: Candida albican ATCC 64124; assay: In vitro antifungal activity (MIC80), Candida albican ATCC 64124; conditions: Candida, ATCC64124; Table 2, 64124; read-out: Minimal inhibitory concentration (MIC80)
Method: as §1, §2, §3, §4, §5, §6, §7, §8, §9

[6] = test system: Candida albican ATCC 64550; assay: In vitro antifungal activity (MIC80), Candida albican ATCC 64550; conditions: Candida, ATCC64550; Table 2, 64550; read-out: Minimal inhibitory concentration (MIC80)
Method: as §1, §2, §3, §4, §5, §6, §7, §8, §9

[7] = test system: Candida albican ATCC MYA-573; assay: In vitro antifungal activity (MIC80), Candida albican ATCC MYA-573; conditions: Candida; Table 2, MYA 573; read-out: Minimal inhibitory concentration (MIC80)
Method: as §1, §2, §3, §4, §5, §6, §7, §8, §9

[8] = test system: Candida albican ATCC MYA-574; assay: In vitro antifungal activity (MIC80), Candida albican ATCC MYA-574; conditions: Candida; Table 2, MYA 574; read-out: Minimal inhibitory concentration (MIC80)
Method: as §1, §2, §3, §4, §5, §6, §7, §8, §9

[9] = test system: Candida albican ATCC MYA-575; assay: In vitro antifungal activity (MIC80), Candida albican ATCC MYA-575; conditions: Candida; Table 2, MYA 575; read-out: Minimal inhibitory concentration (MIC80)
Method: as §1, §2, §3, §4, §5, §6, §7, §8, §9

[10] = test system: Candida albican ATCC MYA-576; assay: In vitro antifungal activity (MIC80), Candida albican ATCC MYA-576; conditions: Candida; Table 2, MYA 576; read-out: Minimal inhibitory concentration (MIC80)
Method: as §1, §2, §3, §4, §5, §6, §7, §8, §9

Compound | MIC80 [1] [µg/mL] | MIC80 [2] [µg/mL] | MIC80 [3] [µg/mL] | MIC80 [4] [µg/mL] | MIC80 [5] [µg/mL] | MIC80 [6] [µg/mL] | MIC80 [7] [µg/mL] | MIC80 [8] [µg/mL] | MIC80 [9] [µg/mL] | MIC80 [10] [µg/mL]
C[C@@H](N1CCN(c2cccc(OCC3CC3)n2)CC1)[C@](O)(Cn1cncn1)c1ccc(F)cc1F [Example 21, (2R,3R)-3-(4-(6-(cyclopropylmethoxy)pyridin-2-yl)piperazin-1-yl)-2-(2,4-difluorophenyl)-1-(1H-1,2,4-triazol-1-yl)butan-2-ol] | 0.125 (≈ 0.258 µM) | > 128 | > 128 | 8 (≈ 16.5 µM) | > 128 | 8 (≈ 16.5 µM) | 8 (≈ 16.5 µM) | 128 (≈ 264 µM) | 0.25 (≈ 0.516 µM) | 0.25 (≈ 0.516 µM)
C[C@@H](N1CCN(c2cccc(OC3CCCC3)n2)CC1)[C@](O)(Cn1cncn1)c1ccc(F)cc1F [Example 22, (2R,3R)-3-(4-(6-(cyclopentyloxy)pyridin-2-yl)piperazin-1-yl)-2-(2,4-difluorophenyl)-1-(1H-1,2,4-triazol-1-yl)butan-2-ol] | 0.5 (≈ 1 µM) | > 128 | > 128 | 128 (≈ 257 µM) | > 128 | 64 (≈ 128 µM) | 32 (≈ 64.2 µM) | > 128 | 0.5 (≈ 1 µM) | 0.5 (≈ 1 µM)
CCCCOc1cccc(N2CCN([C@H](C)[C@](O)(Cn3cncn3)c3ccc(F)cc3F)CC2)n1 [Example 23, (2R,3R)-3-(4-(6-(butyloxy)pyridin-2-yl)piperazin-1-yl)-2-(2,4-difluorophenyl)-1-(1H-1,2,4-triazol-1-yl)butan-2-ol] | 0.25 (≈ 0.514 µM) | > 128 | > 128 | > 128 | > 128 | > 128 | > 128 | > 128 | 0.5 (≈ 1.03 µM) | 0.5 (≈ 1.03 µM)
CC(C)Oc1cccc(N2CCN([C@H](C)[C@](O)(Cn3cncn3)c3ccc(F)cc3F)CC2)n1 [Example 24, (2R,3R)-2-(2,4-difluorophenyl)-3-(4-(6-(isopropyloxy)pyridin-2-yl)piperazin-1-yl)-1-(1H-1,2,4-triazol-1-yl)butan-2-ol] | 0.125 (≈ 0.265 µM) | > 128 | > 128 | 8 (≈ 16.9 µM) | > 128 | 2 (≈ 4.23 µM) | 4 (≈ 8.46 µM) | 8 (≈ 16.9 µM) | 0.5 (≈ 1.06 µM) | 0.25 (≈ 0.529 µM)
C[C@@H](N1CCN(c2cccc(OCc3cccs3)n2)CC1)[C@](O)(Cn1cncn1)c1ccc(F)cc1F [Example 25, (2R,3R)-2-(2,4-difluorophenyl)-3-(4-(6-(thiophen-2-ylmethoxy)pyridin-2-yl)piperazin-1-yl)-1-(1H-1,2,4-triazol-1-yl)butan-2-ol] | 0.25 (≈ 0.475 µM) | > 128 | > 128 | > 128 | > 128 | > 128 | 2 (≈ 3.8 µM) | > 128 | 1 (≈ 1.9 µM) | 0.5 (≈ 0.949 µM)
C[C@@H](N1CCN(c2cccc(OCCN3CCOCC3)n2)CC1)[C@](O)(Cn1cncn1)c1ccc(F)cc1F [Example 26, (2R,3R)-2-(2,4-difluorophenyl)-3-(4-(6-(2-morpholinoethoxy)pyridin-2-yl)piperazin-1-yl)-1-(1H-1,2,4-triazol-1-yl)butan-2-ol] | 0.25 (≈ 0.46 µM) | > 128 | > 128 | 4 (≈ 7.36 µM) | > 128 | 8 (≈ 14.7 µM) | 8 (≈ 14.7 µM) | 16 (≈ 29.4 µM) | 0.5 (≈ 0.92 µM) | 0.5 (≈ 0.92 µM)
